Source: patent publication US8106055B2, “Substituted amide compounds” (Gruenenthal GmbH, priority 2007, dated 2012)

The molecules below were run against T1, human μ opiate receptor (Homo sapiens, UniProt P35372) (assay: Affinity for the human μ opiate receptor ([3H]-naloxone displacement, CHO-K1 receptor membrane preparation, SPA)). Conditions: test concentration of 1 μM; read-out: μ (binding on the μ opioid receptor, % inhibition).
T1 construct: purchased PerkinElmer Life Sciences, Zaventem, Belgium RB-HOM; host or cells: CHO-K1 cells (membrane preparation)
T1 sequence (P35372 whole entry): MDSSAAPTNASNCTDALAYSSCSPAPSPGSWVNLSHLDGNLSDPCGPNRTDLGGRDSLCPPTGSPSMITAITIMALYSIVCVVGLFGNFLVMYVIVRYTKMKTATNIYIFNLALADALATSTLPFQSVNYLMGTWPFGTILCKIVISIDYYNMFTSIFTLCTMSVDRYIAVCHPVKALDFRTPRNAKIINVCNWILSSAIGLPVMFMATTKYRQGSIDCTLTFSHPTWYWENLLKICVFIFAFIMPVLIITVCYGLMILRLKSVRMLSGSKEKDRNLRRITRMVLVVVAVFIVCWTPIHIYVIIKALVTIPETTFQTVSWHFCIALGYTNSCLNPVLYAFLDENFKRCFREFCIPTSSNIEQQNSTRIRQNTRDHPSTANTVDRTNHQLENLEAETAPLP
Type: binding
In short: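 CHO-K1 membranes expressing human μ receptor incubated 90 min at room temperature with 1 nmol/l [3H]-naloxone and WGA-SPA beads in 50 mmol/l Tris-HCl, 0.06% BSA; 100 μmol/l naloxone defines non-specific binding. Values are % inhibition of specific binding at 1 μM; IC50 converted to Ki by Cheng-Prusoff.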
CN(C)C(c1cccs1)C1CCC(CNC(=O)COCCN(C)S(=O)(=O)c2ccc(Cl)cc2)CC1 (stereo not drawn) [Example 55, 2-(2-(4-chloro-N-methylphenylsulfonamido)ethoxy)-N-((4-((dimethylamino)(thiophen-2-yl)methyl)cyclohexyl)methyl)acetamide] was tested, and the inhibition at 1 µM was 95%. CN(C)C(c1cccs1)C1CCC(CNC(=O)COCCN(C)S(=O)(=O)c2ccc(F)cc2)CC1 (stereo not drawn) [Example 56, N-((4-((dimethylamino)(thiophen-2-yl)methyl)cyclohexyl)methyl)-2-(2-(4-fluoro-N-methylphenylsulfonamido)ethoxy)acetamide] showed an inhibition at 1 µM of 95%. Molecule Cc1cc(C)c(S(=O)(=O)N(C)CCOCC(=O)NCC2CCC(C(c3cccs3)N(C)C)CC2)c(C)c1 (stereo not drawn) [Example 57, N-((4-((dimethylamino)(thiophen-2-yl)methyl)cyclohexyl)methyl)-2-(2-(N,2,4,6-tetramethylphenylsulfonamido)ethoxy)acetamide] has an inhibition at 1 µM of 95%. For COc1cc(C)c(S(=O)(=O)N2CCC(OCC(=O)NCC3CCC(C(c4cccs4)N(C)C)CC3)C2)c(C)c1C (stereo not drawn) [Example 58, N-((4-((dimethylamino)(thiophen-2-yl)methyl)cyclohexyl)methyl)-2-(1-(4-methoxy-2,3,6-trimethylphenylsulfonyl)pyrrolidin-3-yloxy)acetamide], the inhibition at 1 µM was 95%. CCN(CCOCC(=O)NC1CCC(C(c2cccs2)N(C)C)CC1)S(=O)(=O)c1c(C)cc(OC)c(C)c1C (stereo not drawn) [Example 59, N-(4-((dimethylamino)(thiophen-2-yl)methyl)cyclohexyl)-2-(2-(N-ethyl-4-methoxy-2,3,6-trimethylphenylsulfonamido)ethoxy)acetamide] showed an inhibition at 1 µM of 95%. COc1cc(C)c(S(=O)(=O)N2CCCC(OCC(=O)NCC3CCC(C(c4cccs4)N(C)C)CC3)C2)c(C)c1C (stereo not drawn) [Example 60, N-((4-((dimethylamino)(thiophen-2-yl)methyl)cyclohexyl)methyl)-2-(1-(4-methoxy-2,3,6-trimethylphenylsulfonyl)piperidin-3-yloxy)acetamide] was tested, and the inhibition at 1 µM was 95%. Work on COc1cc(C)c(S(=O)(=O)N2CCN(CCOCC(=O)NCC3CCC(C(c4ccccc4)N(C)C)CC3)CC2)c(C)c1C (stereo not drawn) [Example 61, N-((4-((dimethylamino)(phenyl)methyl)cyclohexyl)methyl)-2-(2-(4-(4-methoxy-2,3,6-trimethylphenylsulfonyl)piperazin-1-yl)ethoxy)acetamide] yielded an inhibition at 1 µM of 95%. With COc1ccc(S(=O)(=O)N2CCCCC2CCOCC(=O)NC2CCC(C(c3cccc(F)c3)N(C)C)CC2)cc1 (stereo not drawn) [Example 62, N-(4-((dimethylamino)(3-fluorophenyl)methyl)cyclohexyl)-2-(2-(1-(4-methoxyphenylsulfonyl)piperidin-2-yl)ethoxy)acetamide] the inhibition at 1 µM was 95%. Cc1cc(C)c(S(=O)(=O)N2CCC(OCC(=O)NC3CCC(C(c4ccccc4)N(C)C)CC3)C2)c(C)c1 (stereo not drawn) [Example 64, N-(4-((dimethylamino)(phenyl)methyl)cyclohexyl)-2-(1-(mesitylsulfonyl)pyrrolidin-3-yloxy)acetamide] gave an inhibition at 1 µM of 94%. With CN(C)C(c1cccs1)C1CCC(CCNC(=O)COCCN(C)S(=O)(=O)c2ccc(OC(F)(F)F)cc2)CC1 (stereo not drawn) [Example 65, N-(2-(4-((dimethylamino)(thiophen-2-yl)methyl)cyclohexyl)ethyl)-2-(2-(N-methyl-4-(trifluoromethoxy)phenylsulfonamido)ethoxy)acetamide] the inhibition at 1 µM was 96%. Work on CN(C)C(c1cccs1)C1CCC(CCNC(=O)COC2CCN(S(=O)(=O)c3ccc(Cl)cc3)C2)CC1 (stereo not drawn) [Example 66, 2-(1-(4-chlorophenylsulfonyl)pyrrolidin-3-yloxy)-N-(2-(4-((dimethylamino)(thiophen-2-yl)methyl)cyclohexyl)ethyl)acetamide] yielded an inhibition at 1 µM of 93%. CN(C)C(c1ccccc1)C1CCC(CNC(=O)COC2CCN(S(=O)(=O)c3ccc(Cl)cc3Cl)C2)CC1 (stereo not drawn) [Example 67, 2-(1-(2,4-dichlorophenylsulfonyl)pyrrolidin-3-yloxy)-N-((4-((dimethylamino)(phenyl)methyl)cyclohexyl)methyl)acetamide] showed an inhibition at 1 µM of 96%. Cc1ccc(S(=O)(=O)N2CCC(OCC(=O)NCC3CCC(C(c4cccs4)N(C)C)CC3)C2)cc1 (stereo not drawn) [Example 68, N-((4-((dimethylamino)(thiophen-2-yl)methyl)cyclohexyl)methyl)-2-(1-tosylpyrrolidin-3-yloxy)acetamide] was tested, and the inhibition at 1 µM was 93%. Work on COc1cc(C)c(S(=O)(=O)N(C)CCOCC(=O)NCC2CCC(C(c3cccs3)N(C)C)CC2)c(C)c1 (stereo not drawn) [Example 69, N-((4-((dimethylamino)(thiophen-2-yl)methyl)cyclohexyl)methyl)-2-(2-(4-methoxy-N,2,6-trimethylphenylsulfonamido)ethoxy)acetamide] yielded an inhibition at 1 µM of 96%. For CN(C)C(c1cccc(F)c1)C1CCC(CNC(=O)COCCN(C)S(=O)(=O)c2ccc(Cl)cc2Cl)CC1 (stereo not drawn) [Example 70, 2-(2-(2,4-dichloro-N-methylphenylsulfonamido)ethoxy)-N-((4-((dimethylamino)(3-fluorophenyl)methyl)cyclohexyl)methyl)acetamide], the inhibition at 1 µM was 91%. For Cc1cc(C)c(S(=O)(=O)N2CCC(OCC(=O)NCCC3CCC(C(c4cccs4)N(C)C)CC3)C2)c(C)c1 (stereo not drawn) [Example 71, N-(2-(4-((dimethylamino)(thiophen-2-yl)methyl)cyclohexyl)ethyl)-2-(1-(mesitylsulfonyl)pyrrolidin-3-yloxy)acetamide], the inhibition at 1 µM was 94%. CN(C)C(c1cccc(F)c1)C1CCC(CNC(=O)COCCN(C)S(=O)(=O)c2c(Cl)cccc2Cl)CC1 (stereo not drawn) [Example 72, 2-(2-(2,6-dichloro-N-methylphenylsulfonamido)ethoxy)-N-((4-((dimethylamino)(3-fluorophenyl)methyl)cyclohexyl)methyl)acetamide] gave an inhibition at 1 µM of 92%. COc1ccc(S(=O)(=O)N(C)CCOCC(=O)NC2CCC(C(c3cccs3)N(C)C)CC2)cc1 (stereo not drawn) [Example 73, N-(4-((dimethylamino)(thiophen-2-yl)methyl)cyclohexyl)-2-(2-(4-methoxy-N-methylphenylsulfonamido)ethoxy)acetamide] showed an inhibition at 1 µM of 90%. COc1cc(C)c(S(=O)(=O)N2CCC(OCC(=O)NCCC3CCC(C(c4cccs4)N(C)C)CC3)C2)c(C)c1C (stereo not drawn) [Example 74, N-(2-(4-((dimethylamino)(thiophen-2-yl)methyl)cyclohexyl)ethyl)-2-(1-(4-methoxy-2,3,6-trimethylphenylsulfonyl)pyrrolidin-3-yloxy)acetamide] was tested, and the inhibition at 1 µM was 90%. With COc1cc(C)c(S(=O)(=O)N2CCC(CCOCC(=O)NCCC3CCC(C(c4cccs4)N(C)C)CC3)CC2)c(C)c1C (stereo not drawn) [Example 75, N-(2-(4-((dimethylamino)(thiophen-2-yl)methyl)cyclohexyl)ethyl)-2-(2-(1-(4-methoxy-2,3,6-trimethylphenylsulfonyl)piperidin-4-yl)ethoxy)acetamide] the inhibition at 1 µM was 92%. COc1cc(C)c(S(=O)(=O)N2CCN(CCOCC(=O)NC3CCC(C(c4cccc(F)c4)N(C)C)CC3)CC2)c(C)c1C (stereo not drawn) [Example 76, N-(4-((dimethylamino)(3-fluorophenyl)methyl)cyclohexyl)-2-(2-(4-(4-methoxy-2,3,6-trimethylphenylsulfonyl)piperazin-1-yl)ethoxy)acetamide] showed an inhibition at 1 µM of 93%.
